# Data as given in ChEMBL document CHEMBL1153050, “Amidine derived inhibitors of acid-sensing ion channel-3 (ASIC3)” (Bioorg Med Chem Lett, 2009).
# Active and inactive are the calls of the source. No cut-off for these calls is given here.
# Legend:
# [1] = target: T1, Acid-sensing ion channel 3 (Homo sapiens) (UniProt Q9UHC3); experiment: Inhibition of ASIC3 at 1 uM by patch-clamp electrophysiology assay relative to baseline peak current
# T1 sequence (whole entry): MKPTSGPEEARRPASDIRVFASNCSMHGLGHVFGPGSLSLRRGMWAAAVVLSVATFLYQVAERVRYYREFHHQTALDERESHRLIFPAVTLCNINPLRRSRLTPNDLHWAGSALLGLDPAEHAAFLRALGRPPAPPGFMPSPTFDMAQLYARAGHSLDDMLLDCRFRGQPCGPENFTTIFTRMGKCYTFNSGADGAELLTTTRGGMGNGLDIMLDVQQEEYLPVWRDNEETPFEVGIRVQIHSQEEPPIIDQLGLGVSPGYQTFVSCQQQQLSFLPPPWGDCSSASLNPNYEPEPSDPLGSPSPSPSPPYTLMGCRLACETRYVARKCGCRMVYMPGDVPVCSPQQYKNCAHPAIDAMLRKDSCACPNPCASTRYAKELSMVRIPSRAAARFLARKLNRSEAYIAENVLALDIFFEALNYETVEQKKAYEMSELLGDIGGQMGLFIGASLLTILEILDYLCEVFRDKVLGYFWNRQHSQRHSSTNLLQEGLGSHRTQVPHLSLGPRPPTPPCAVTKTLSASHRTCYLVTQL
# [2] = target: T1, Acid-sensing ion channel 3 (Homo sapiens); experiment: Inhibition of ASIC3 at 10 uM by patch-clamp electrophysiology assay relative to baseline peak current
# [3] = target: T2, Acid-sensing ion channel 3 (Homo sapiens, UniProt Q9UHC3); experiment: Inhibition of ASIC3 by patch-clamp electrophysiology assay
# T2 sequence (Q9UHC3 whole entry): T1 sequence (whole entry)
# Rattus norvegicus [4] = experiment: Analgesic activity against complete Freund's adjuvant-induced […] in Sprague-Dawley rat assessed as reversal of mechanical hypersensitivity at 30 mg/kg, ip after 30 mins; assay type: functional, organism-based; design: dose 30 mg/kg
# Rattus norvegicus [5] = experiment: Analgesic activity against complete Freund's adjuvant-induced […] in Sprague-Dawley rat assessed as reversal of mechanical hypersensitivity at 20 mg/kg, po after 30 mins; assay type: functional, organism-based; design: dose 20 mg/kg
# [6] = Plasma clearance in iv dosed rat; assay type: ADME, organism-based
# [7] = Half life in iv dosed rat plasma; assay type: ADME, organism-based
# [8] = Blood clearance in iv dosed rat; assay type: ADME, organism-based; conditions: whole blood
# [9] = Half life in iv dosed rat blood; assay type: ADME, organism-based; conditions: whole blood
SMILES,inhibition [1] [%],inhibition [2] [%],IC50 [3] [µM],other results
N=C(N)c1ccc2[nH]c(-c3cc(Br)cc(Br)c3)cc2c1,92,92,0.059,–
N=C(N)c1ccc2[nH]c(-c3ccccc3)cc2c1,–,88,2.77,–
COc1cc(F)cc(-c2cc3cc(C(=N)N)ccc3[nH]2)c1,77,98,0.374,–
N=C(N)c1ccc2[nH]c(-c3cc(Cl)cc(NCc4ccccc4)c3)cc2c1,91,–,0.077,–
N#Cc1c(Cl)cc(-c2cc3cc(C(=N)N)ccc3[nH]2)cc1Cl,83,–,0.272,–
N=C(N)c1ccc(-c2cc3ccc(C(=N)N)cc3[nH]2)cc1,33,83,–,–
N=C(N)c1ccc2[nH]c(-c3cc(Cl)cc(CNc4ccccc4)c3)cc2c1,83,–,0.114,–
N=C(N)c1ccc(-c2cc3ccccc3[nH]2)cc1,–,46,–,–
N=C(N)c1ccc2[nH]c(-c3cc(N)cc(Cl)c3)cc2c1,78,–,0.095,–
N=C(N)c1ccc2[nH]c(-c3cc(Cl)nc(Cl)c3)cc2c1,84,–,0.291,–
N=C(N)c1ccc2[nH]c(-c3cc(Cl)cc(-c4ccccc4)c3)cc2c1,94,–,–,–
Cc1cc(Cl)cc(-c2cc3cc(C(=N)N)ccc3[nH]2)c1,87,–,0.051,–
N=C(N)c1ccc2[nH]c(-c3cc(Cl)cc(Cl)c3Cl)cc2c1,91,–,0.135,–
N=C(N)c1ccc2[nH]c(-c3cc(F)cc(Cl)c3)cc2c1,82,99,0.278,–
Cn1c(-c2ccc(C(=N)N)cc2)cc2cc(C(=N)N)ccc21,14,–,–,–
N=C(N)c1ccc2[nH]c(-c3cc(F)cc(Br)c3)cc2c1,93,96,0.059,–
N=C(N)c1ccc(-c2nc3cc(C(=N)N)ccc3[nH]2)cc1,–,53,–,–
N=C(N)c1ccc2cc(-c3ccccc3)[nH]c2c1,18,–,–,–
N=C(N)c1ccc2[nH]c(-c3cc(Cl)cc(Cl)c3)cc2c1,92,98,0.133,Activity (Rattus norvegicus [4]): Active; Activity (Rattus norvegicus [5]): Active; clearance [6]: 0.51 L/h/kg; half-life [7]: 2 h; clearance [8]: 0.51 L/h/kg; half-life [9]: 4.4 h
